Experimental findings from ChEMBL document CHEMBL1201862, “PubChem BioAssay data set” (2004) are described below.

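Following 48 hours of exposure in 96-well plates, responses at five concentrations were used to interpolate endpoints linearly. The concentration for 50% growth inhibition is given as GI50.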 Calls of active or inactive are those of the source. Rule as the data show it: active = GI50 up to about 1.1 µM and inactive = higher. Where only a bound is given, the exact number is not on record here.

Test systems include ACHN; NCI-H226; Malme-3M; RXF 393; HL-60; EKVX; BT-549; MCF7; MDA-MB-231; HOP-92; HOP-62; NCI/ADR-RES; SF-539; Hs-578T; TK-10; LOX IMVI; MDA-N; M14.
Holding throughout (assay): inhibition of tumour cell growth, NCI panel, 48 h

For `Nc1n[nH]c2nc3ccccc3nc12` [QUINOXALINE1], the GI50 in the assay on ACHN is 36 µM (inactive); in the assay with NCI-H226, 91.8 µM (inactive); with Malme-3M, > 100 µM (inactive); in the assay with RXF 393 it was 27.9 µM (inactive); in the assay with HL-60, 34.8 µM (inactive); in the assay with EKVX, 73.3 µM (inactive). Besides, the GI50 with BT-549 is 64.6 µM (inactive); with MCF7 it was 61.2 µM (inactive); with MDA-MB-231 it was > 100 µM (inactive); in the assay with HOP-92 it was > 100 µM (inactive); with HOP-62, 61 µM (inactive); with NCI/ADR-RES, > 100 µM (inactive). Further, the GI50 with SF-539 is 61.7 µM (inactive); with Hs-578T, 39 µM (inactive); in the assay on TK-10 it was 70.1 µM (inactive); in the assay with LOX IMVI, 47 µM (inactive); in the assay on MDA-N, > 100 µM (inactive).

On to `Cc1ccc(S(N)(C(=O)Nc2cccc3ccccc23)[N+](=O)[O-])cc1` (stereo not drawn), for which the GI50 in the assay with NCI-H226 was > 100 µM (inactive); in the assay on Malme-3M, > 100 µM (inactive); in the assay with RXF 393, > 100 µM (inactive); in the assay with HL-60, 39.3 µM (inactive); in the assay with BT-549, > 100 µM (inactive); in the assay on MCF7, 59.2 µM (inactive). Besides, the GI50 in the assay with MDA-MB-231 is 36.6 µM (inactive); with HOP-92, > 100 µM (inactive); in the assay with HOP-62, > 100 µM (inactive); in the assay with NCI/ADR-RES, > 100 µM (inactive); in the assay on M14, > 100 µM (inactive); in the assay on Hs-578T it was > 100 µM (inactive). The results for the GI50 with TK-10, with LOX IMVI and in the assay on MDA-N were 72.4 µM (inactive), > 100 µM (inactive) and > 100 µM (inactive), respectively.

Consider `O=[N+]([O-])C(=C/c1ccccc1)/C(=C\c1ccccc1)[N+](=O)[O-]`, for which the GI50 was 16.9 µM (inactive) in the assay with ACHN; 19.1 µM (inactive) in the assay with NCI-H226; 10.2 µM (inactive) in the assay with RXF 393; 17.3 µM (inactive) in the assay with EKVX; 17.6 µM (inactive) with BT-549; 14.9 µM (inactive) with MCF7. Moreover, the GI50 in the assay with MDA-MB-231 was 13.2 µM (inactive); in the assay on HOP-92 it was 21.3 µM (inactive); with HOP-62, 19.1 µM (inactive); in the assay on NCI/ADR-RES, 18.7 µM (inactive); in the assay with M14, 19.1 µM (inactive); with SF-539 it was 1.6 µM (inactive). For the same compound, the GI50 with Hs-578T is 56.2 µM (inactive); in the assay on TK-10 it was 16.1 µM (inactive); with LOX IMVI, 14.7 µM (inactive); with MDA-N, 17.1 µM (inactive).

For `COC(OC)C1OC(CO)C(n2cc(F)c(=O)[nH]c2=O)C1O` (stereo not drawn), the GI50 in the assay with ACHN, in the assay with NCI-H226, with RXF 393, in the assay with HL-60, with EKVX and in the assay on BT-549 was > 100 µM (inactive) throughout. Besides, the GI50 with MCF7, in the assay with MDA-MB-231, with HOP-92, in the assay with HOP-62, in the assay on NCI/ADR-RES and with M14 was > 100 µM (inactive) each time. The GI50 in the assay on SF-539, in the assay on Hs-578T, in the assay on TK-10, in the assay on LOX IMVI and in the assay with MDA-N was > 100 µM (inactive) throughout.

As to `COc1ccc2c(c1)CC1Cc3ccccc3CCN1C2` (stereo not drawn), the GI50 was 64 µM (inactive) in the assay with ACHN; 89.1 µM (inactive) with NCI-H226; 42.3 µM (inactive) in the assay on Malme-3M; 25.7 µM (inactive) with RXF 393; 53.1 µM (inactive) in the assay with HL-60; 59 µM (inactive) with EKVX. Moreover, the GI50 with BT-549 is > 100 µM (inactive); in the assay with MCF7, 74.5 µM (inactive); in the assay with MDA-MB-231, 6.65 µM (inactive); in the assay with HOP-92, 27.7 µM (inactive); with HOP-62 it was 6.14 µM (inactive); in the assay on NCI/ADR-RES, 52 µM (inactive). For the same compound, the GI50 in the assay on M14 was 23.6 µM (inactive); with SF-539, 31.1 µM (inactive); in the assay on Hs-578T it was 41.2 µM (inactive); in the assay on TK-10, 24.5 µM (inactive); with LOX IMVI it was 20 µM (inactive); with MDA-N, 47.9 µM (inactive).

`c1ccc(/N=C2\SC3=NCCN3\C2=N/c2ccccc2)cc1`: the GI50 in the assay with NCI-H226 is 20.6 µM (inactive); in the assay with Malme-3M, > 10 µM (inactive); with RXF 393, 15.2 µM (inactive); in the assay with BT-549 it was 15.2 µM (inactive); in the assay on MCF7, 10.7 µM (inactive); in the assay on MDA-MB-231 it was 22.9 µM (inactive). Moreover, the GI50 in the assay on HOP-92 is 27.1 µM (inactive); in the assay with HOP-62 it was 18.7 µM (inactive); in the assay with NCI/ADR-RES, 28 µM (inactive); with M14 it was 17.5 µM (inactive); in the assay with Hs-578T, 36.9 µM (inactive); with MDA-N it was 15.7 µM (inactive).

Turning to `COc1cc2c(cc1OC)-c1cc3ccccc3c(=O)n1CC2`, the GI50 with ACHN was 37.5 µM (inactive); in the assay on NCI-H226, 26.8 µM (inactive); in the assay on Malme-3M it was 16.4 µM (inactive); with RXF 393, 2.33 µM (inactive); in the assay on EKVX it was 24.6 µM (inactive); with BT-549, 29.2 µM (inactive). In addition, the GI50 is 28.3 µM (inactive) with MCF7; 2.17 µM (inactive) in the assay with MDA-MB-231; 14.1 µM (inactive) in the assay on HOP-92; 5.19 µM (inactive) in the assay on HOP-62; 25.2 µM (inactive) with NCI/ADR-RES; 31.2 µM (inactive) in the assay with M14. The GI50 in the assay on SF-539 is 14.1 µM (inactive); in the assay on Hs-578T, 11.4 µM (inactive); in the assay on TK-10 it was 19.9 µM (inactive); with LOX IMVI, 10.3 µM (inactive); in the assay with MDA-N, 28.2 µM (inactive).

For `Nc1nc2ccc(Sc3ccc4nc(N)[nH]c(=O)c4c3)cc2c(=O)[nH]1`, the GI50 in the assay on ACHN is > 100 µM (inactive); with NCI-H226, 14.1 µM (inactive); with Malme-3M, > 100 µM (inactive); with RXF 393, > 100 µM (inactive); in the assay with HL-60, > 100 µM (inactive); in the assay on EKVX, > 100 µM (inactive). Also, the GI50 is > 100 µM (inactive) in the assay with BT-549; > 100 µM (inactive) with MCF7; 67.3 µM (inactive) in the assay with MDA-MB-231; > 100 µM (inactive) in the assay with HOP-92; > 100 µM (inactive) in the assay on NCI/ADR-RES; > 100 µM (inactive) with M14. For the same compound, the GI50 in the assay with SF-539, in the assay with Hs-578T and with TK-10 was > 100 µM (inactive) each time.

In the case of `COP(=O)(OC)/C(=C/c1cn(C(C)=O)c2ccccc12)NC(C)=O`, the GI50 in the assay with ACHN was 53 µM (inactive); in the assay on HL-60, 13.1 µM (inactive); with MCF7 it was 8.91 µM (inactive); in the assay with MDA-MB-231 it was 36.1 µM (inactive); in the assay with HOP-92 it was > 10 µM (inactive); in the assay on HOP-62 it was 41.3 µM (inactive). Moreover, the GI50 was 28.8 µM (inactive) with NCI/ADR-RES; 41.8 µM (inactive) in the assay on M14; 35.4 µM (inactive) in the assay on Hs-578T; 58.2 µM (inactive) in the assay with TK-10; 13 µM (inactive) with LOX IMVI; 13.8 µM (inactive) in the assay on MDA-N.

Turning to `COc1nc2ccc(CNc3ccc(C(=O)NC(CCC(=O)O)C(=O)O)cc3)cc2nc1OC` (stereo not drawn), the GI50 is > 100 µM (inactive) in the assay with ACHN; > 100 µM (inactive) in the assay on NCI-H226; 90.8 µM (inactive) with Malme-3M; > 100 µM (inactive) in the assay on RXF 393; > 100 µM (inactive) in the assay with HL-60; > 100 µM (inactive) in the assay on EKVX. Moreover, the GI50 in the assay on BT-549, with MCF7, in the assay with MDA-MB-231, in the assay with HOP-62, with NCI/ADR-RES and in the assay with M14 was > 100 µM (inactive) throughout. Also, the GI50 in the assay with Hs-578T is > 100 µM (inactive); in the assay on TK-10, > 100 µM (inactive); with LOX IMVI, 32.8 µM (inactive); with MDA-N, > 100 µM (inactive).

As to `COc1cc(Br)c(CC2C3=C(CCN2C(=O)C2CCC2)CC(=O)CC3)cc1O` (stereo not drawn), the GI50 was 27.5 µM (inactive) in the assay on ACHN; 41.9 µM (inactive) in the assay with NCI-H226; 28.3 µM (inactive) with Malme-3M; 5.9 µM (inactive) with HL-60; 30.2 µM (inactive) with EKVX; 26.5 µM (inactive) with MDA-MB-231. Also, the GI50 in the assay on HOP-92 is 20.4 µM (inactive); in the assay on HOP-62 it was 44.2 µM (inactive); in the assay on NCI/ADR-RES it was 27.5 µM (inactive); with M14, 33.4 µM (inactive); in the assay with SF-539 it was 46.2 µM (inactive); in the assay on Hs-578T, 26.1 µM (inactive). For the same compound, the figures for the GI50 in the assay with TK-10, with LOX IMVI and in the assay on MDA-N were 30.4 µM (inactive), 47.8 µM (inactive) and 19.6 µM (inactive), respectively.

`Cc1cnc(/C=N\NC(N)=S)c2cccc(N)c12`: the GI50 with ACHN was 0.387 µM (active); with NCI-H226, 1.39 µM (inactive); in the assay with Malme-3M it was 1.62 µM (inactive); in the assay on RXF 393 it was 0.728 µM (active); in the assay with HL-60, 0.3 µM (active); in the assay with EKVX it was 1.1 µM (active). The GI50 with BT-549 is 0.536 µM (active); in the assay with MCF7, 0.526 µM (active); in the assay with MDA-MB-231 it was 1.52 µM (inactive); in the assay with HOP-62, 0.904 µM (active); in the assay on NCI/ADR-RES, 1.84 µM (inactive); with SF-539, 0.676 µM (active). Besides, the GI50 in the assay on Hs-578T is > 100 µM (inactive); with TK-10 it was 5.78 µM (inactive); with LOX IMVI, 0.445 µM (active); in the assay on MDA-N, 0.767 µM (active).

Turning to `CCCNc1[nH]c(C(=O)c2ccccc2)c(N)c1C(=S)Nc1ccccc1`, the GI50 in the assay with ACHN, in the assay with NCI-H226, with Malme-3M, in the assay with HL-60, in the assay with EKVX and in the assay on BT-549 was > 100 µM (inactive) throughout. The GI50 in the assay with MCF7, in the assay with MDA-MB-231, in the assay with HOP-92, in the assay with HOP-62, in the assay with NCI/ADR-RES and with M14 was > 100 µM (inactive) in each case. The GI50 in the assay with SF-539, in the assay on Hs-578T, in the assay on TK-10, in the assay on LOX IMVI and in the assay with MDA-N was > 100 µM (inactive) each time.
